Source: ChEMBL document CHEMBL3046100, “Synthesis and anti-congestive heart failure activity of novel levosimendan analogues” (2011)

Assays:
Assay type in all cases: functional, Artery
[1] = system: Rattus norvegicus; assay: Anticongestive heart failure activity in Rattus norvegicus (rat) assessed as blood pressure at 50 mg/kg, intraduodenal measured at 10 min by tracheal intubation method (reference value: 95 +/- 3 mmHg)
[2] = system: Rattus norvegicus; assay: Anticongestive heart failure activity in Rattus norvegicus (rat) assessed as blood pressure at 50 mg/kg, intraduodenal measured at 5 min by tracheal intubation method (reference value: 97 +/- 3 mmHg)
[3] = system: Rattus norvegicus; assay: Anticongestive heart failure activity in Rattus norvegicus (rat) assessed as blood pressure at 50 mg/kg, intraduodenal measured at 15 min by tracheal intubation method (reference value: 86 +/- 3 mmHg)
[4] = system: Rattus norvegicus; assay: Anticongestive heart failure activity in Rattus norvegicus (rat) assessed as blood pressure at 50 mg/kg, intraduodenal measured at 30 min by tracheal intubation method (reference value: 88 +/- 3 mmHg)
[5] = system: Rattus norvegicus; assay: Anticongestive heart failure activity in Rattus norvegicus (rat) assessed as blood pressure at 50 mg/kg, intraduodenal measured at 20 min by tracheal intubation method (reference value: 81 +/- 4 mmHg)
[6] = system: Rattus norvegicus; assay: Anticongestive heart failure activity in Rattus norvegicus (rat) assessed as blood pressure at 50 mg/kg, intraduodenal measured at 25 min by tracheal intubation method (reference value: 79 +/- 4 mmHg)

Row | SMILES | Activity [1] [mmHg] | Activity [2] [mmHg] | Activity [3] [mmHg] | Activity [4] [mmHg] | Activity [5] [mmHg] | Activity [6] [mmHg]
1 | C[C@@H]1CC(=O)NN=C1c1ccc(/N=C/c2ccc(O)cc2)cc1 | 44 | 80 | 32 | 30 | 30 | 29
2 | C[C@@H]1CC(=O)NN=C1c1ccc(/N=C/c2ccccc2O)cc1 | 28 | 55 | 28 | 26 | 26 | 26
3 | C[C@@H]1CC(=O)NN=C1c1ccc(/N=C/c2ccc(Cl)c(Cl)c2)cc1 | 33 | 52 | 25 | 25 | 24 | 25
4 | COc1cc(/C=N/c2ccc(C3=NNC(=O)C[C@H]3C)cc2)cc(OC)c1OC | 46 | 77 | 37 | 27 | 28 | 27
5 | C[C@@H]1CC(=O)NN=C1c1ccc(/N=C/c2ccc(O)c(O)c2)cc1 | 63 | 77 | 53 | 53 | 53 | 53
6 | C[C@@H]1CC(=O)NN=C1c1ccc(/N=C/c2ccc([N+](=O)[O-])cc2)cc1 | 35 | 56 | 31 | 29 | 29 | 28
7 | C[C@@H]1CC(=O)NN=C1c1ccc(/N=C/c2ccccn2)cc1 | 39 | 52 | 30 | 29 | 30 | 29
8 | C[C@@H]1CC(=O)NN=C1c1ccc(/N=C/c2cccc([N+](=O)[O-])c2)cc1 | 71 | 77 | 69 | 67 | 68 | 67
9 | C[C@@H]1CC(=O)NN=C1c1ccc(/N=C/c2ccccc2Cl)cc1 | 68 | 81 | 55 | 32 | 34 | 34
10 | C[C@@H]1CC(=O)NN=C1c1ccc(NN=C(C#N)C#N)cc1 [LEVOSIMENDAN] | 39 | 51 | 34 | 31 | 36 | 34
11 | C[C@@H]1CC(=O)NN=C1c1ccc(/N=C/c2ccco2)cc1 | 30 | 45 | 25 | 24 | 25 | 23
